Where two headings read alike, the source gives them in different places.
How the values were obtained:
[1] = target: recombinant human Mcl-1 (residues 171-327) / Bim interaction (Homo sapiens (Human), UniProt Q07820); experiment: biochemical; type: binding; conditions: read-out: Mcl-1 HTRF IC50
[2] = tested on: human multiple myeloma cell line, OPM-2; experiment: Cell viability assay (OPM-2 10 FBS), CellTiter-Glo; type: cell-based
In short: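 Steps: plate cells at 3000/well in 10% FBS growth medium, add serially diluted compound, incubate 16 h at 37 °C with 5% CO2, add detection reagent and read luminescence after 25 min. A 4-parameter logistic model gives IC50.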

[3] = TR-FRET, Mcl-1(171-327) / biotin-Bim (51-76)
[4] = Homo sapiens, OPM-2, 16 h, read-out: OPM-2 10% FBS IC50 IP, OPM-2 cells, 10% FBS, 16 h, CellTiter-Glo

Chain of recombinant human Mcl-1 (residues 171-327) / Bim interaction (Q07820 171-327): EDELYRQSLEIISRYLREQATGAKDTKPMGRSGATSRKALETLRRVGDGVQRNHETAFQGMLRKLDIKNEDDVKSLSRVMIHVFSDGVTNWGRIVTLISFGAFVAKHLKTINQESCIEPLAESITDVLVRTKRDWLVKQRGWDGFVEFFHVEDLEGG

SMILES | IC50 [1, 3] [nM] | IC50 [2, 4] [nM] | IC50 ([1]; 0.1 nM Mcl-1(171-327), 0.05 nM biotin-Bim (51-76)) [nM] | IC50 ([2]; Homo sapiens, OPM-2, 16 h, read-out: OPM-2 10% FBS IC50 IP, OPM-2 cells, 10% FBS, 16 h incubation) [nM] | IC50 ([2]; read-out: OPM-2 10% FBS IC50 IP, OPM-2 cells, 10% FBS, 16 h, CellTiter-Glo) [nM]
CO[C@@]1(Cc2cc(C)ccn2)/C=C/C[C@H](C)[C@@H](C)S(=O)(=O)NC(=O)c2ccc3c(c2)N(C[C@@H]2CC[C@H]21)C[C@@]1(CCCc2cc(Cl)ccc21)CO3 [Example 100560, (1S,3′R,6′R,7′S,8′E,11′S,12′R)-6-chloro-7′-methoxy-11′,12′-dimethyl-7′-((4-methyl-2-pyridinyl)methyl)-3,4-dihydro-2H,15′H-spiro[naphthalene-1,22′-[20]oxa[13]thia[1,14]diazatetracyclo [14.7.2.0~3,6~.0~19,24~]pentacosa[8,16,18,24]tetraen]-15′-one 13′,13′-dioxide] | 0.041 | 2020 | – | – | –
CO[C@@]1(c2nccs2)/C=C/C[C@H](C)[C@@H](C)S(=O)(=O)NC(=O)c2ccc3c(c2)N(C[C@@H]2CC[C@H]21)C[C@@]1(CCCc2cc(Cl)ccc21)CO3 (single isomer, unassigned) [Example 100497] | 0.064 | 106 | – | – | –
C#C[C@]1(OC)/C=C/C[C@H](C)[C@@H](C)S(=O)(=O)NC(=O)c2ccc3c(c2)N(C[C@@H]2CC[C@H]21)C[C@@]1(CCCc2cc(Cl)ccc21)CO3 [Example 100502, (1S,3′R,6′R,7′S,8′E,11′S,12′R)-6-chloro-7′-ethynyl-7′-methoxy-11′,12′-dimethyl-3,4-dihydro-2H,15′H-spiro[naphthalene-1,22′-[20]oxa[13]thia[1,14]diazatetracyclo [14.7.2.0~3,6~.0~19,24~]pentacosa[8,16,18,24]tetraen]-15′-one 13′,13′-dioxide] | 0.29 | 393 | – | – | –
C[C@@H]1[C@@H](C)CCC[C@@](O)(CO)[C@@H]2CC[C@H]2CN2C[C@@]3(CCCc4cc(Cl)ccc43)COc3ccc(cc32)C(=O)NS1(=O)=O [Example 100053, (1S,3′R,6′R,7′S,11′S,12′R)-6-chloro-7′-hydroxy-7′-(hydroxymethyl)-11′,12′-dimethyl-3,4-dihydro-2H,15′H-spiro[naphthalene-1,22′-[20]oxa[13]thia[1,14]diazatetracyclo [14.7.2.0~3,6~.0~19,24~]pentacosa[16,18,24]trien]-15′-one 13′,13′-dioxide] | 0.294 | 609 | – | – | –
CC[C@@H]1CC/C=C/[C@](COCCN2CCOCC2)(OC)[C@@H]2CC[C@H]2CN2C[C@@]3(CCCc4cc(Cl)ccc43)COc3ccc(cc32)C(=O)NS1(=O)=O (single isomer, unassigned) [Example 100597] | 0.263 | 577 | – | – | –
C[C@@H]1[C@@H](C)C/C=C/[C@]2(CN(Cc3cccnc3)CCO2)[C@@H]2CC[C@H]2CN2C[C@@]3(CCCc4cc(Cl)ccc43)COc3ccc(cc32)C(=O)NS1(=O)=O [Example 137, (1S,3′R,6′R,7′R,8′E,11′S,12′R)-6-chloro-11′,12′-dimethyl-4″- (3-pyridinylmethyl)-3,4-dihydro-2H,15′H-dispiro[naphthalene-1,22′-[20]oxa[13]thia[1,14]diazatetracyclo [14.7.2.0~3,6~.0~19,24~]pentacosa[8,16,18,24]tetraene-7′,2″-[1,4]oxazinan]-15′-one 13′,13′-dioxide] | – | – | 4.74 | 1150 | –
C[C@@H]1[C@@H](C)CCC[C@@](O)(Cc2nccn2C)[C@@H]2CC[C@H]2CN2C[C@@]3(CCCc4cc(Cl)ccc43)COc3ccc(cc32)C(=O)NS1(=O)=O [Example 100162, (1S,3′R,6′R,7′R,11′S,12′R)-6-chloro-7′-hydroxy-11′,12′-dimethyl-7′-((1-methyl-1H-imidazol-2-yl)methyl)-3,4-dihydro-2H,15′H-spiro[naphthalene-1,22′-[20]oxa[13]thia[1,14]diazatetracyclo [14.7.2.0~3,6~.0~19,24~]pentacosa[16,18,24]trien]-15′-one 13′,13′-dioxide] | 3.47 | – | – | – | 2870

Source: US10821115B2, “Compounds that inhibit Mcl-1 protein” (priority 2017, dated 2020)
